Data as given in patent US3953501A, “Triiodoisophthalic acid monoamino acid amides” (Schering Aktiengesellschaft, priority 1972, dated 1976).
Where “and” joins values, the source holds several entries; their conditions need not be identical. Equal entries are not always repeated.

What was measured:
Format in all cases: in vivo
[1] = tested on: rats; assay: Cisternal compatibility (injection into suboccipital cisterna); conditions: 0.008 - 0.200 ml./kg., methylglucamine salts, 200 mg. I/ml., neurological symptoms in 50% of animals, (1) = Iotalamat (H), (2) = compound
Protocol: (§1) All substances were tested as methylglucamine salts with 200 mg. I/ml. of solution. The intracerebral compatibility was determined on rats in accordance with Valzelli, Med. Exp. 11: 23-26 (1964).
In order to determine the cisternal compatibility, the test compounds were injected in varying doses (0.008 - 0.200 ml./kg.) by means of a Hamilton No. 710 syringe directly into the suboccipital cisterna of rats which were under a slight ether narcosis.
(§2) As a measure of physiological compatibility, the ED50 was determined in each case, i.e., the dose at which an undesired array of neurological symptoms (including convulsions and death) is evoked in 50% of the animals.

[2] = tested on: rats; assay: Intracerebral compatibility according to Valzelli; conditions: methylglucamine salts, 200 mg. I/ml., dose evoking neurological symptoms (including convulsions and death) in 50% of animals, (1) = Iotalamat (H), (2) = compound
Protocol: as §1, §2

[3] = tested on: rats; assay: Cerebral compatibility (injection into left common carotid artery); conditions: 14.0 - 26.0 ml./kg., methylglucamine salts, 200 mg. I/ml., neurological symptoms in 50% of animals, (1) = Iotalamat (H), (2) = compound
Protocol: as §1
Cerebral compatibility was likewise determined on rats. In an operation under a slight ether narcosis, a catheter was affixed in the left common carotid artery; the distal end of the catheter, after having been passed through the lateral connective tissue of the neck, was fixed in the center of the back. Three hours later, the test compounds were cranially injected in varying doses (14.0 - 26.0 ml./kg.) into the artery.
as §2

## CNC(=O)C(C)NC(=O)c1c(I)c(NC(C)=O)c(I)c(C(=O)O)c1I (racemic) [B, N-(3-Carboxy-5-acetamido-2,4,6-triiodobenzoyl)-DL-alanine Methylamide]
[1]
  ED50 cisternal compatibility (myelography): 16.7 mg. I/kg.
[2]
  ED50 intracerebral compatibility according to Valzelli (myelography): 66.30 mg. I/kg.

## CNC(=O)C(CO)NC(=O)c1c(I)c(NC(=O)COC)c(I)c(C(=O)O)c1I (racemic) [F, N-(3-Carboxy-5-methoxyacetamido-2,4,6-triiodobenzoyl)-DL-serine Methylamide]
[3]
  ED50 cerebral compatibility (angiography): 3.78 g I/kg
[1]
  ED50 cisternal compatibility (myelography): 22.8 mg. I/kg.
[2]
  ED50 intracerebral compatibility according to Valzelli (myelography): 81.32 mg. I/kg.

## CC(=O)Nc1c(I)c(C(=O)O)c(I)c(C(=O)NCC(N)=O)c1I [A, N-(3-Carboxy-5-acetamido-2,4,6-triiodobenzoyl)-glycine Amide]
[1]
  ED50 cisternal compatibility (myelography): 11.17 mg. I/kg.
[2]
  ED50 intracerebral compatibility according to Valzelli (myelography): 70.72 mg. I/kg.

## CNC(=O)CNC(=O)c1c(I)c(NC(=O)COC)c(I)c(C(=O)O)c1I [C, N-(3-Carboxy-5-methoxyacetamido-2,4,6-triiodobenzoyl)-glycine Methylamide]
[1]
  ED50 cisternal compatibility (myelography): 20.04 mg. I/kg.
[2]
  ED50 intracerebral compatibility according to Valzelli (myelography): 53.97 mg. I/kg.

## CNC(=O)c1c(I)c(NC(C)=O)c(I)c(C(=O)N(C)CC(=O)O)c1I [D, N-(3-Methylaminocarbonyl-5-acetamido-2,4,6-triiodobenzoyl)-sarcosine]
[3]
  ED50 cerebral compatibility (angiography): 3.99 g I/kg
[1]
  ED50 cisternal compatibility (myelography): 11.93 mg. I/kg.
[2]
  ED50 intracerebral compatibility according to Valzelli (myelography): 76.21 mg. I/kg.

## CC(=O)Nc1c(I)c(C(N)=O)c(I)c(C(=O)NCC(=O)O)c1I [E, N-(3-Aminocarbonyl-5-acetamido-2,4,6-triiodobenzoyl)-glycine]
[1]
  ED50 cisternal compatibility (myelography): 14.42 mg. I/kg.
[2]
  ED50 intracerebral compatibility according to Valzelli (myelography): 69.84 mg. I/kg.

## CNC(=O)CNC(=O)c1c(I)c(NC(=O)CO)c(I)c(C(=O)O)c1I [G, N-(3-Carboxy-5-hydroxyacetamido-2,4,6-triiodobenzoyl)-glycine Methylamide]
[3]
  ED50 cerebral compatibility (angiography): 3.55 g I/kg
[1]
  ED50 cisternal compatibility (myelography): 11.8 mg. I/kg.
[2]
  ED50 intracerebral compatibility according to Valzelli (myelography): 62.62 mg. I/kg.

## CNC(=O)c1c(I)c(NC(C)=O)c(I)c(C(=O)O)c1I [H, 3-acetamido-5-methylcarbamoyl-2,4,6-triiodobenzoic acid, reference compound]
[1]
  ED50 cisternal compatibility (myelography): 10.56 mg. I/kg. and 11.8 mg. I/kg. and 9.8 mg. I/kg. and 10.9 mg. I/kg. and 10.07 mg. I/kg. and 10.30 mg. I/kg.
[2]
  ED50 intracerebral compatibility according to Valzelli (myelography): 59.83 mg. I/kg. and 56.59 mg. I/kg. and 60.86 mg. I/kg. and 61.92 mg. I/kg. and 61.28 mg. I/kg.
